Data: ChEMBL document CHEMBL1201862, “PubChem BioAssay data set” (2004)
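Exposure lasted 48 hours, with cells grown in 96-well plates and compounds tested at five concentrations. GI50 is the concentration that inhibits growth by half.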 Calls of active or inactive are those of the source. Cut-off read from the data, not from the text of the source: active = GI50 up to about 1.1 µM and inactive = higher.

Experiments:
Test in all cases: NCI-60 cell line screen, 48 h
RPMI-8226 = test system: RPMI-8226
HOP-92 = test system: HOP-92
786-0 = test system: 786-0
COLO 205 = test system: COLO 205
HCT-116 = test system: HCT-116
NCI-H460 = test system: NCI-H460
HT-29 = test system: HT-29
KM12 = test system: KM12
SN12C = test system: SN12C
MDA-MB-231 = test system: MDA-MB-231
SF-539 = test system: SF-539
PC-3 = test system: PC-3
SW-620 = test system: SW-620
A498 = test system: A498
A549 = test system: A549
ACHN = test system: ACHN
BT-549 = test system: BT-549
OVCAR-4 = test system: OVCAR-4
HOP-62 = test system: HOP-62
NCI/ADR-RES = test system: NCI/ADR-RES

| Structure (SMILES) | GI50 (RPMI-8226) | GI50 (HOP-92) | GI50 (786-0) | GI50 (COLO 205) | GI50 (HCT-116) | GI50 (NCI-H460) | GI50 (HT-29) | GI50 (KM12) | GI50 (SN12C) | GI50 (MDA-MB-231) | GI50 (SF-539) | GI50 (PC-3) | GI50 (SW-620) | GI50 (A498) | GI50 (A549) | GI50 (ACHN) | GI50 (BT-549) | GI50 (OVCAR-4) | GI50 (HOP-62) | GI50 (NCI/ADR-RES) |
| --- | --- | --- | --- | --- | --- | --- | --- | --- | --- | --- | --- | --- | --- | --- | --- | --- | --- | --- | --- | --- |
| O=C(O)c1c2c(c(O)c3c1CN(C1CCCCC1)CO3)OCN(C1CCCCC1)C2 | 40.5 µM (inactive) | > 100 µM (inactive) | 68.4 µM (inactive) | > 100 µM (inactive) | 39.3 µM (inactive) | 19 µM (inactive) | > 100 µM (inactive) | > 100 µM (inactive) | 27.2 µM (inactive) | 46.7 µM (inactive) | 37 µM (inactive) | > 100 µM (inactive) | 22 µM (inactive) | > 100 µM (inactive) | > 100 µM (inactive) | > 100 µM (inactive) | > 100 µM (inactive) | > 100 µM (inactive) | 83.2 µM (inactive) | > 100 µM (inactive) |
| O=c1oc2ccccc2c(-c2ccc(O)cc2)c1Oc1ccc(Cl)cc1 | 20.7 µM (inactive) | 19.8 µM (inactive) | 26.9 µM (inactive) | 23.2 µM (inactive) | 15.8 µM (inactive) | 20.4 µM (inactive) | 20.1 µM (inactive) | 26.5 µM (inactive) | 24 µM (inactive) | 22.4 µM (inactive) | 30.4 µM (inactive) | 25.8 µM (inactive) | 30.5 µM (inactive) | 26.6 µM (inactive) | 19.3 µM (inactive) | 25.8 µM (inactive) | 23.2 µM (inactive) | 38.4 µM (inactive) | – | 24.5 µM (inactive) |
| O=C(CSc1nc2ccc(I)cc2c(=O)n1Cc1ccccc1)Nc1ccccc1 | 88.3 µM (inactive) | 19.3 µM (inactive) | 8.57 µM (inactive) | > 100 µM (inactive) | 42.1 µM (inactive) | – | > 100 µM (inactive) | 94.4 µM (inactive) | 19.6 µM (inactive) | 16.5 µM (inactive) | 3.08 µM (inactive) | 11.4 µM (inactive) | 92.7 µM (inactive) | 15.6 µM (inactive) | 26.6 µM (inactive) | 26 µM (inactive) | 20 µM (inactive) | 14.3 µM (inactive) | 5.7 µM (inactive) | 13.8 µM (inactive) |
| Cc1cc2cc3c(cc2c(-c2ccc([N+](=O)[O-])cc2)n1)OCO3 | 35.8 µM (inactive) | 3.77 µM (inactive) | 23.6 µM (inactive) | 37.7 µM (inactive) | 36.8 µM (inactive) | 29.7 µM (inactive) | 56.8 µM (inactive) | 25.1 µM (inactive) | 28.7 µM (inactive) | 18.6 µM (inactive) | 22.6 µM (inactive) | 44.7 µM (inactive) | 29.4 µM (inactive) | > 100 µM (inactive) | 25.8 µM (inactive) | 29.9 µM (inactive) | 17.2 µM (inactive) | 17.9 µM (inactive) | 19 µM (inactive) | 44.6 µM (inactive) |
| CC(C)CC(N)C(=O)O (stereo not given) | > 100 µM (inactive) | > 100 µM (inactive) | > 100 µM (inactive) | > 100 µM (inactive) | > 100 µM (inactive) | > 100 µM (inactive) | > 100 µM (inactive) | > 100 µM (inactive) | > 100 µM (inactive) | > 100 µM (inactive) | > 100 µM (inactive) | > 100 µM (inactive) | > 100 µM (inactive) | > 100 µM (inactive) | > 100 µM (inactive) | > 100 µM (inactive) | > 100 µM (inactive) | > 100 µM (inactive) | > 100 µM (inactive) | > 100 µM (inactive) |
| CC(=O)Nc1ccc2c3c(cc(O)c2c1)N(C(=O)CCCCC(=O)N1CC(CCl)c2c1cc(O)c1cc(NC(C)=O)ccc21)CC3CCl (stereo not given) | 0.169 µM (active) | 0.207 µM (active) | 0.0528 µM (active) | 0.102 µM (active) | 0.125 µM (active) | < 0.01 µM (active) | 0.301 µM (active) | 0.505 µM (active) | 0.154 µM (active) | 0.29 µM (active) | 0.0527 µM (active) | 0.526 µM (active) | 0.518 µM (active) | 0.127 µM (active) | 0.147 µM (active) | 0.0308 µM (active) | 0.183 µM (active) | 1.63 µM (inactive) | 0.177 µM (active) | 21.3 µM (inactive) |
| COC(=O)C(CCSc1ccccc1)C(=O)OC | > 100 µM (inactive) | > 100 µM (inactive) | > 100 µM (inactive) | > 100 µM (inactive) | > 100 µM (inactive) | > 100 µM (inactive) | > 100 µM (inactive) | > 100 µM (inactive) | > 100 µM (inactive) | > 100 µM (inactive) | > 100 µM (inactive) | > 100 µM (inactive) | > 100 µM (inactive) | > 100 µM (inactive) | > 100 µM (inactive) | > 100 µM (inactive) | > 100 µM (inactive) | > 100 µM (inactive) | > 100 µM (inactive) | > 100 µM (inactive) |
| c1ccc2c(c1)ccc1nc(-c3ccc4c(c3)OCO4)c3c(c12)CCCC3 | 15.5 µM (inactive) | – | 26.1 µM (inactive) | 20.3 µM (inactive) | 15.8 µM (inactive) | 11.6 µM (inactive) | 9.48 µM (inactive) | 11.3 µM (inactive) | 26.1 µM (inactive) | 4.48 µM (inactive) | 12.5 µM (inactive) | 8.75 µM (inactive) | 29.2 µM (inactive) | 14.6 µM (inactive) | 20.6 µM (inactive) | 20.8 µM (inactive) | 17 µM (inactive) | 13.6 µM (inactive) | 41.9 µM (inactive) | 17.7 µM (inactive) |
| CC[C@]12C=CCN3CC[C@@]4(c5cc(Br)c(OC)cc5N(C)[C@H]4[C@@](O)(C(=O)N[C@@H](Cc4ccc(O)cc4)C(=O)OC)[C@@H]1O)[C@@H]32 | 15.6 µM (inactive) | – | 49.9 µM (inactive) | 18.6 µM (inactive) | 34.8 µM (inactive) | 18.2 µM (inactive) | 14.6 µM (inactive) | 11.3 µM (inactive) | 16.5 µM (inactive) | 11 µM (inactive) | 19.7 µM (inactive) | 39 µM (inactive) | 32.9 µM (inactive) | 18.1 µM (inactive) | 25.7 µM (inactive) | 27.6 µM (inactive) | 20.7 µM (inactive) | 14.7 µM (inactive) | 46.5 µM (inactive) | 20.7 µM (inactive) |
| COc1c2ccoc2cc2oc(=O)ccc12 [BERGAPTEN] | > 100 µM (inactive) | > 100 µM (inactive) | > 100 µM (inactive) | > 100 µM (inactive) | > 100 µM (inactive) | > 100 µM (inactive) | > 100 µM (inactive) | – | > 100 µM (inactive) | > 100 µM (inactive) | > 100 µM (inactive) | > 100 µM (inactive) | > 100 µM (inactive) | > 100 µM (inactive) | > 100 µM (inactive) | > 100 µM (inactive) | 49 µM (inactive) | > 100 µM (inactive) | > 100 µM (inactive) | > 100 µM (inactive) |
| CCn1c2ccccc2c2ccc(C3C4C(=O)N(c5cccc6ccccc56)C(=O)C4ON3C(C(N)=O)c3ccccc3)cc21 (stereo not given) | – | > 25 µM (inactive) | 21.2 µM (inactive) | 10.1 µM (inactive) | 13 µM (inactive) | 12.9 µM (inactive) | 8.24 µM (inactive) | 9.95 µM (inactive) | 16.7 µM (inactive) | > 25 µM (inactive) | 7.59 µM (inactive) | 14.2 µM (inactive) | 12.8 µM (inactive) | 2.63 µM (inactive) | > 25 µM (inactive) | > 25 µM (inactive) | 14.9 µM (inactive) | 14.6 µM (inactive) | > 25 µM (inactive) | > 25 µM (inactive) |
| COC(OC)C(O)C1OC=CC1n1cnc2c(N)ncnc21 (stereo not given) | > 100 µM (inactive) | > 100 µM (inactive) | > 100 µM (inactive) | > 100 µM (inactive) | > 100 µM (inactive) | > 100 µM (inactive) | > 100 µM (inactive) | > 100 µM (inactive) | > 100 µM (inactive) | > 100 µM (inactive) | > 100 µM (inactive) | > 100 µM (inactive) | > 100 µM (inactive) | > 100 µM (inactive) | – | > 100 µM (inactive) | > 100 µM (inactive) | > 100 µM (inactive) | > 100 µM (inactive) | > 100 µM (inactive) |
| Cc1cccc2[nH]c3c(c(O)cc4[nH]c5cccc(C)c5c(=O)c43)c(=O)c12 | > 10 µM (inactive) | – | 2.99 µM (inactive) | 3.84 µM (inactive) | 3.65 µM (inactive) | 5.57 µM (inactive) | 3.85 µM (inactive) | 6.87 µM (inactive) | 4.97 µM (inactive) | 8.11 µM (inactive) | > 10 µM (inactive) | 4.06 µM (inactive) | 6.11 µM (inactive) | > 10 µM (inactive) | > 10 µM (inactive) | 5.83 µM (inactive) | 3.63 µM (inactive) | 4.33 µM (inactive) | > 10 µM (inactive) | > 10 µM (inactive) |
| C#CCCOC(=O)c1ccccc1OC(C)=O | > 100 µM (inactive) | > 100 µM (inactive) | > 100 µM (inactive) | > 100 µM (inactive) | > 100 µM (inactive) | > 100 µM (inactive) | – | > 100 µM (inactive) | > 100 µM (inactive) | > 100 µM (inactive) | > 100 µM (inactive) | > 100 µM (inactive) | > 100 µM (inactive) | > 100 µM (inactive) | – | > 100 µM (inactive) | > 100 µM (inactive) | > 100 µM (inactive) | 70.3 µM (inactive) | > 100 µM (inactive) |
